According to ChEMBL document CHEMBL1201862, “PubChem BioAssay data set” (2004):
Calls of active or inactive are those of the source. Starred links: 1 amine or outer side, 2 acyl side, 3 side chain; linkers in the order of their positions; H or OH if unused. Positions of bridges follow the written chain, without caps; N, C: chain ends. Non-standard residues stand in square brackets, D forms with d. Residues, ends and D or L forms follow the SMILES beside them. Chains are numbered I, II in the order given. Actinocin(1to9) = Cc1c2oc3c(C)ccc(C(=O)[*:2])c3nc-2c(C(=O)[*:1])c(N)c1=O; aThr = C[C@H](O)[C@H](N)C(=O)O; NMeV = CN[C@H](C(=O)O)C(C)C; Sar = CNCC(=O)O

Legend:
[1] = blockers of HIV-1 envelope-mediated cell-cell fusion – cherry-pick, dose response (AID 652057); assay type: functional, cell-based
Cytochrome P450 1A2 = molecular target: T1, Cytochrome P450 1A2 (Homo sapiens, UniProt P05177);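 note: PubChem cytochrome P450 panel assay, CYP1A2 panel member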
T1 sequence (P05177 whole entry): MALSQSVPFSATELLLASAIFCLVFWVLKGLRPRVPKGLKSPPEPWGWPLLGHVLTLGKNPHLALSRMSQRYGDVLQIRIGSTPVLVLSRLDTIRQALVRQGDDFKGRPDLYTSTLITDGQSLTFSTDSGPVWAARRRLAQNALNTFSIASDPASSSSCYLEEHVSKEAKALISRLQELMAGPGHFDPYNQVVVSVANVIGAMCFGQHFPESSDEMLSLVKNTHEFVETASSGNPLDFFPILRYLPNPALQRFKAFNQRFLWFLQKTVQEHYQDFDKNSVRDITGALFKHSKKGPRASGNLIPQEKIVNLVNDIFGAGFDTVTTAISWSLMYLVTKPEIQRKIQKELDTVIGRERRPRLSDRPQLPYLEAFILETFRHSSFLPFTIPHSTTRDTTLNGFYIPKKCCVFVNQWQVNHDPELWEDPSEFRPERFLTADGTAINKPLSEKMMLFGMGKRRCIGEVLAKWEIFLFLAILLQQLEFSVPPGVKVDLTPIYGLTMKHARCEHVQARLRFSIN

[2] = molecular target: T2, Microphthalmia-associated transcription factor (Homo sapiens, UniProt O75030); assay: reducers of TRPM1 reporter luminescence, concentration series – cell-based, SK-MEL-5, cherry-picked, set 3, MITF inhibitor project, dose response (AID 493073); assay type: functional;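 note: SK-MEL-5 melanoma cells with luciferase driven by the MITF target TRPM1 promoter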
T2 sequence (O75030 whole entry): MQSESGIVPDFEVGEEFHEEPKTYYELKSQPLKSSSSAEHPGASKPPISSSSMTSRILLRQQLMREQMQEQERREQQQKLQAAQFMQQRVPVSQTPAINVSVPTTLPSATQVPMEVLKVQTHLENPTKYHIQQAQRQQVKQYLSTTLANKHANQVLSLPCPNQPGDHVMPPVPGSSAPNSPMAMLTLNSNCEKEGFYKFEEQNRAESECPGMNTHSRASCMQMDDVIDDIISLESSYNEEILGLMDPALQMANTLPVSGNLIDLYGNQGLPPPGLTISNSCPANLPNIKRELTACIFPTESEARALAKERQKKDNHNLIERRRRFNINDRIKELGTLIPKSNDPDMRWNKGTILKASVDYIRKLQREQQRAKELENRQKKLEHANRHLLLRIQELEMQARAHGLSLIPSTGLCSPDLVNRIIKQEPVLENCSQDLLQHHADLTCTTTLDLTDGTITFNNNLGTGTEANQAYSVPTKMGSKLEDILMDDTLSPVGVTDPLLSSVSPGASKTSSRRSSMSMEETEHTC

[3] = Luminescence Cell-Based Dose Confirmation HTS to Identify Activators of 5'UTR Stem-Loop Driven Alpha-Synuclein mRNA Translation in H4 Neuroglioblastoma Cells. [Related pubchem assays: 1829 (Project Summary), 1814 (Primary HTS)]; assay type: functional
[4] = Luminescence Cell-Based Dose Response HTS to Identify Activators of Luciferase Translation or Activity in H4 […] Cells. [Related pubchem assays: 1829 (Project Summary), 1814 (Primary HTS)]; assay type: functional
[5] = Luminescence Cell-Based Dose Confirmation HTS to Identify Inhibitors of Platelet Dense Granule Release. [Related pubchem assays: 1663 (Primary HTS), 1678 (Summary of Project)]; assay type: functional
[6] = molecular target: Luciferin 4-monooxygenase (Photinus pyralis, UniProt P08659); assay: inhibition of purified Photinus pyralis luciferase – biochemical, luminescence, dose response (AID 1891)
P388 = assay: cells; assay type: functional
P388/ADR = assay: cells; assay type: functional
SN12K1 = assay: cells; assay type: functional
[7] = microbe, parasite or virus in culture; assay type: functional; conditions: Mycobacterium tuberculosis
Cytochrome P450 2D6 = Cytochrome P450 2D6 (Homo sapiens, UniProt P10635);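 note: CYP2D6 member of a cytochrome P450 panel assay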
[8] = viability of uninfected HEp-2 cells – cell-based, HTS, cytotoxicity control for RSV inhibitor project, dose response (AID 2410); assay type: functional; conditions: human respiratory syncytial virus
[9] = HIV-1 AD8 envelope cell-cell fusion blockers – cherry-pick, dose response (AID 652062); assay type: functional, cell-based;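 note: luciferase signal from cell-cell fusion driven by HIV-1 clade B AD8 Env; potency is for inhibitors of fusion seen as a drop in luminescence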
Streptokinase A = molecular target: T3, Streptokinase A (Streptococcus pyogenes serotype M1, UniProt P10520); assay: viability-normalized secreted streptokinase activity reduction – plasminogen activation absorbance, OD405, dose response (AID 1914); assay type: functional, Streptococcus pyogenes M1 GAS;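 note: secreted streptokinase activity via plasminogen activation per viability signal from cell pellet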
T3 sequence (P10520 whole entry): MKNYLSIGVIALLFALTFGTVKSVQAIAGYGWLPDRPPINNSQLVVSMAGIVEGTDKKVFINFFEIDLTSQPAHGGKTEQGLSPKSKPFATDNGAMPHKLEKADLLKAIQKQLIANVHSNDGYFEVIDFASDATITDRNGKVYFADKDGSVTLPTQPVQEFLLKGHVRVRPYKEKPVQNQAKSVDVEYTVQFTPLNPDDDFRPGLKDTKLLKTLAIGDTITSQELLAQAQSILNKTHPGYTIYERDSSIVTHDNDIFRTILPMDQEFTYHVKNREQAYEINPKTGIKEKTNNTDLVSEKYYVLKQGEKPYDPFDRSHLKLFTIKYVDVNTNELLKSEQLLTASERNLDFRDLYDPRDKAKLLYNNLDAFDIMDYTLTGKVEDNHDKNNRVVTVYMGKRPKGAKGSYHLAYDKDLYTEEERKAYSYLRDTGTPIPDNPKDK

[10] = test system: Streptococcus sp. 'group A'; assay: Streptococcus pyogenes SK(-)GAS viability under kanamycin – luminescence, BacTiterGlo, confirmation, counter-screen for streptokinase expression inhibitor project, dose response (AID 1900); assay type: functional, organism-based
Streptococcus = assay: GAS UMAA2166 growth inhibition – luminescence, BacTiterGlo, counter-screen for streptokinase expression inhibitor project, dose response (AID 1915); assay type: functional, organism-based;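 note: potency for reduction of bacterial viability or growth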

Luciferin 4-monooxygenase, sequence (P08659 whole entry): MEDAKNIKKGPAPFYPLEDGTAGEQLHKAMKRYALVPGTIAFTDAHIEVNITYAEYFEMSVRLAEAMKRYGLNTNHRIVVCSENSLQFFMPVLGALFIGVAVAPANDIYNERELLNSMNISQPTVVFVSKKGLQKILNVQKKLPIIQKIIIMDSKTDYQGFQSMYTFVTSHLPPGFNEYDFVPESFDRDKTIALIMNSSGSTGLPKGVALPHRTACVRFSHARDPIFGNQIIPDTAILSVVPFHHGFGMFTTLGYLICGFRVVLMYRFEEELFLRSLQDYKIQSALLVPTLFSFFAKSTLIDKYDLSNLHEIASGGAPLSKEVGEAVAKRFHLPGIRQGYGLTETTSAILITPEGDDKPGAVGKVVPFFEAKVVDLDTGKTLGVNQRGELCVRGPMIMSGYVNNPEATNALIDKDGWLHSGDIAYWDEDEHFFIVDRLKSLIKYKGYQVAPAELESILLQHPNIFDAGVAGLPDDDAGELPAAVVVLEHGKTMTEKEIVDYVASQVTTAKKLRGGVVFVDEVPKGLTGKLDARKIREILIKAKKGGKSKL
Cytochrome P450 2D6, sequence (P10635 whole entry): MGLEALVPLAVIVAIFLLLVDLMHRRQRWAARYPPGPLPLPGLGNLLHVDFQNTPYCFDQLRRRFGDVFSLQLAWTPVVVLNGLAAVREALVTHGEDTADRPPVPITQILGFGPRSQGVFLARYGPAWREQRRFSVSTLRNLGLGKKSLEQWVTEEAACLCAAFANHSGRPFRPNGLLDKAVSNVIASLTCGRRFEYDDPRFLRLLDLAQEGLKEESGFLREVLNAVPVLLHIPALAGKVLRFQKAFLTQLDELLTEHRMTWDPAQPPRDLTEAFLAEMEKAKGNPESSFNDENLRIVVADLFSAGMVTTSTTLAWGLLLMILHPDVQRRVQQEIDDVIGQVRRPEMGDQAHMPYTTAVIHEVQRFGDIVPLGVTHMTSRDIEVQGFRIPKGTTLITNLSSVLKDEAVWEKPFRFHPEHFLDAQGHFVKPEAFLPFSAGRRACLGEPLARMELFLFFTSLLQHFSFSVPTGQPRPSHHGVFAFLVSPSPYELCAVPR

Clc1ccc2c(c1)C1=C(C(c3ccncc3)O2)C(c2ccc(Br)cc2)n2ncnc2N1 (configuration not stated)
AC50 [1]: 11.2 µM (active) | AC50 (Cytochrome P450 1A2): 25.1 µM (inconclusive)

Cn1nnnc1Sc1ncnc2scc(-c3cccs3)c12
AC50 [2]: 7 µM (active)

CC(=O)C(=NNc1ccc2c(c1)OCO2)C(C)=O
EC50 [3]: 13.9 µM (active) | EC50 [4]: 27.8 µM (active)

O=C(COc1ccc(C(=O)c2ccccc2)cc1)NC1CCCCC1
EC50 [5]: > 112 µM (not active) | EC50 [6]: > 112 µM (not active)

O=C(/C=C/c1ccccc1)NCC1(c2ccccc2)CCOCC1
EC50 [5]: > 112 µM (not active) | EC50 [6]: > 112 µM (not active)

C=CC1(C)CC(=O)C2(O)C(C)(O1)C(OC(C)=O)C(O)C1C(C)(C)CCC(O)C12C (configuration not stated)
GI50 (P388; Mus musculus, P388): 56.4 µM (inactive) | GI50 (P388/ADR; Mus musculus, P388/ADR): 43.9 µM (inactive) | GI50 (SN12K1; Homo sapiens, SN12K1): 65.3 µM (inactive)

CCOC(=O)Cn1c(=O)n(Cc2ccco2)c(=O)c2ccc(C(=O)NC3CCCC3)cc21
EC50 [5]: 13.8 µM (active) | EC50 [6]: > 112 µM (not active)

COc1ccc(-n2cc(CNCCc3cscn3)c(-c3ccccc3Cl)n2)cc1
CC50 [7]: > 40 µM (active)

COc1ccc(N2CCN(c3ccnc4cc(Cl)ccc34)CC2)cc1
CC50 [7]: > 40 µM (active)

Nc1[nH]nc(C2CC2)c1N=Nc1ccc(Cl)cc1
CC50 [7]: > 40 µM (active)

CCC(=O)Nc1cccc(-c2nnc(SCC(=O)c3ccccc3)n2C)c1
EC50 [4]: 47.5 µM (active)

CCOc1ccc(OCc2ccc(C(=O)NCc3cccnc3)o2)cc1
EC50 [5]: > 112 µM (not active) | AC50 (Cytochrome P450 2D6): 1.26 µM (inconclusive) | EC50 [6]: > 112 µM (not active)

Cc1ncc2c(n1)-c1cc(F)ccc1SC2
CC50 [8]: 40.5 µM (active)

CCOC(=O)c1c(CN2CCN(Cc3ccccc3)CC2)n(C)c2cc(Br)c(OC)cc12
CC50 [7]: > 40 µM (active)

CC(C)c1ccc(C(=O)OC2CCOC2=O)cc1 (configuration not stated)
EC50 [5]: > 112 µM (not active) | EC50 [6]: > 112 µM (not active)

CSc1ccccc1OCc1cc(C(=O)N2CCC(Oc3cccnc3)CC2)no1
CC50 [7]: > 40 µM (active)

COc1ccc(CCNC(=O)c2cc3sc(Cl)cc3n2C)cc1OC
CC50 [8]: 27.5 µM (active)

CCc1cc(=O)oc2cc(C)cc(OCC(=O)NCc3cccnc3)c12
EC50 [5]: > 112 µM (not active) | EC50 [6]: > 112 µM (not active)

CCCCNC(=O)c1cccc(S(=O)(=O)N2CC3(C)CC2CC(C)(C)C3)c1 (configuration not stated)
CC50 [8]: 26.5 µM (active)

O=C(O)CCC(NC(=O)c1ccc(Nc2nc3cc(C(F)(F)F)ccc3nc2-c2ccccc2)cc1)C(=O)O (configuration not stated)
GI50 (P388; Mus musculus, P388): 26.5 µM (inactive) | GI50 (P388/ADR; Mus musculus, P388/ADR): 38.5 µM (inactive) | GI50 (SN12K1; Homo sapiens, SN12K1): 48.2 µM (inactive)

CCOC(=O)c1c(C)c2c(n1C)CCc1c[nH]nc1-2
GI50 (P388; Mus musculus, P388): > 100 µM (inactive) | GI50 (P388/ADR; Mus musculus, P388/ADR): > 31.6 µM (inactive) | GI50 (SN12K1; Homo sapiens, SN12K1): > 100 µM (inactive)

COc1cc2c(cc1OC)C(C(c1ccccc1)c1ccccc1)N(C)CC2 (configuration not stated)
GI50 (P388; Mus musculus, P388): 24.5 µM (inactive) | GI50 (P388/ADR; Mus musculus, P388/ADR): 41.6 µM (inactive) | GI50 (SN12K1; Homo sapiens, SN12K1): 32.6 µM (inactive)

C[C@H]1CN([C@@H](C)CO)C(=O)c2ccccc2-c2ccccc2CO[C@@H]1CN(C)C(=O)Nc1cccc(C(F)(F)F)c1
AC50 [9]: 19 µM (active) | AC50 [1]: < 0.26 µM (active)

Oc1c(Cl)cccc1/C=N/c1cc(C(F)(F)F)ccc1N1CCCC1
EC50 [5]: > 112 µM (not active) | EC50 [6]: > 112 µM (not active)

COC(C(=O)C(O)C(C)O)C1Cc2cc3cc(OC4CC(OC(C)=O)C(OC5CC(O)C(OC)C(C)O5)C(C)O4)cc(O)c3c(O)c2C(=O)C1OC1CC(OC2CC(OC3CC(C)(O)C(OC(=O)C(C)C)C(C)O3)C(O)C(C)O2)C(O)C(C)O1 (configuration not stated)
GI50 (P388): 0.0075 µM (active) | GI50 (P388; Mus musculus, P388): 0.0123 µM (active) | GI50 (P388/ADR): 5.12 µM (inactive) | GI50 (P388/ADR; Mus musculus, P388/ADR): 5.98 µM (inactive) | GI50 (SN12K1): 0.00895 µM (active) | GI50 (SN12K1; Homo sapiens, SN12K1): 0.01 µM (active)

O=C1C=C2SC3C[C@@]24CC1[N+]1=c2c4c(c(O)c4c2=C(C=N4)CC1)N3
GI50 (P388; Mus musculus, P388): 1.83 µM (inactive) | GI50 (P388/ADR; Mus musculus, P388/ADR): 6.35 µM (inactive) | GI50 (SN12K1; Homo sapiens, SN12K1): 1.94 µM (inactive)

OCC1OC(n2cnc3c(NC4CCCC4)ncnc32)C(O)C1O (configuration not stated)
EC50 [5]: 1.09 µM (active) | EC50 [6]: > 112 µM (not active)

CCOC(=O)c1c(N)sc(-c2ccccc2)c1C
CC50 [8]: 28.5 µM (active)

Cc1c2oc3c(C)ccc(C(=O)N[C@@H]4C(=O)N[C@H](C(C)C)C(=O)N5CCC[C@H]5C(=O)N(C)CC(=O)N(C)[C@@H](C(C)C)C(=O)O[C@H]4C)c3nc-2c(C(=O)N[C@@H]2C(=O)N[C@H](C(C)C)C(=O)N3CCC[C@H]3C(=O)N(C)CC(=O)N(C)[C@@H](C(C)C)C(=O)O[C@H]2C)c(N)c1=O (I: [aThr][dV]P[Sar][NMeV] / II: [aThr][dV]P[Sar][NMeV]; ester I:1-I:C, II:1-II:C; linker I:N-II:N via Actinocin(1to9))
GI50 (P388; Mus musculus, P388): 0.00025 µM (active) | GI50 (P388/ADR; Mus musculus, P388/ADR): 0.00442 µM (active) | GI50 (SN12K1; Homo sapiens, SN12K1): 0.000337 µM (active)

CC12CCC(CC1)C(C)(C)O2 [EUCALYPTOL]
EC50 (Streptokinase A): > 150 µM (not active) | EC50 [10]: > 150 µM (not active) | EC50 (Streptococcus): > 150 µM (not active) | GI50 (P388; Mus musculus, P388): 9.1 µM (inactive) | GI50 (P388/ADR; Mus musculus, P388/ADR): 8.17 µM (inactive) | GI50 (SN12K1; Homo sapiens, SN12K1): 21.9 µM (inactive)

NC1=NC(=O)/C(=C2\CCNC(=O)c3[nH]c(Br)cc32)N1 [HYMENIALDISINE]
GI50 (P388; Mus musculus, P388): 3.97 µM (inactive) | GI50 (P388/ADR; Mus musculus, P388/ADR): 7.28 µM (inactive) | GI50 (SN12K1; Homo sapiens, SN12K1): 12.3 µM (inactive)
